One assay addresses T1, human GLP-1R receptor (Homo sapiens, UniProt P43220, L260F).
T1 construct: expressed in transfected cells; host or cells: CHO-K1 (ATCC CCL-61)
Nature of the assay: CHOK1 GLP-1R cAMP Assay (HTRF). Format: cell-based. As to conditions: CHO-K1 cells stably expressing human GLP-1R (Leu260Phe variant), 20 min at rt. As to the method:
A cell line stably expressing the human GLP-1R receptor (NM_002062.5, including the naturally-occurring variant Leu260Phe) in a CHO-K1 (ATCC® CCL-61™) was used for assay.
GLP-1 receptor mediated agonist activity was determined in a cell-based assay measuring cyclic adenosine monophosphate (cAMP) levels in cells using Homogeneous Time-Resolved Fluorescence (HTRF) cAMP detection kit (CisBio catalog #62AM4PEC, cAMP Gs Dynamic range kit). The cAMP detection method is based on a competitive immunoassay, in which cAMP produced by the cells and cAMP labeled with the dye d2 compete for binding to a Europium-Cryptate-labeled anti-cAMP antibody. The specific HTRF signal is inversely proportional to the concentration of cAMP.
Compounds were added to individual well in 384 well-assay plates (Greiner #784076) using an Echo (LabCyte) dispenser from 10 mM stocks. Varying concentration of compounds were added to wells, and DMSO was used to normalize each well to a volume of 100 nL. A dose response curve of GLP-1(7-36)NH2 (Bachem H-6795) was included in each run. 5 μL of cAMP concentration response standards are applied in specified wells in the assay plates. Cryo-preserved cells are thawed and resuspended in assay buffer pre-heated to 37° C. (20 mM 2-[4-(2-hydroxyethyl)piperazin-1-yl]ethanesulfonic acid (HEPES) pH 7.4, 1× Hank's Balanced Salt Solution (HBSS, Life Technologies #14065) supplemented with 0.1% (w/v) bovine serum albumin (Sigma, A-7030)). Cells were centrifuged at 250*g for 5 min at rt, and resuspended in room tempered assay buffer to a final density of 0.16*10^6 cell/mL, to deliver 800 cells/well. 5 μL of assay buffer with 1 mM 3-isobutyl-1-methylxanthin (IBMX; Sigma cat I-7018) was dispensed per well in assay plates using a multidrop combi (Thermo Scientific) subsequently 5 μL of cell suspension was distributed to relevant wells in the assay using a multidrop dispenser. Assay plates were incubated 20 min at rt.
Detection reagents, Europium-Cryptate-labeled anti-cAMP antibody and cAMP labeled with the dye d2, are diluted in lysis buffer, provided by the manufacturer. 5 μL of each detection reagent is supplemented to each assay well using a multidrop dispenser. Assay plates are incubated in the dark for at least one h. The HTRF signal is measured using the HTRF module (excitation: 337 nm, emission A: 665 nm and emission B: 620 nm) in Pherastar FSX (BMG Labtech).
Raw data were converted to pM cAMP using the cAMP standard curve included in each run. Converted data were further analyzed in Genedata Screener (Genedata) and EC50 determinations were made from agonist dose-response curves analyzed with a curve fitting is program using a 4-parameter logistic dose response equation (Equation y=A+((B-A)/1+((C/x)^D))) where A is no stimulation, B is full stimulation, C is the EC50 and D is the Hill slope). The percent effect was determined relative to a saturating concentration of a full GLP-1R agonist (GLP-1(7-36)NH2 has 100% effect in this assay setup).

Assay [1] addresses T2, GLP-1R in a pancreatic insulinoma cell line (EndoC-PH1) (Homo sapiens, UniProt P43220).
T2 construct: host or cells: EndoC-βH1 human pancreatic beta cell line
The assay can be described thus: EndoC cAMP Accumulation Assay (HTRF). The format is cell-based. As to conditions: EndoC-PH1 human pancreatic beta cell line, endogenous GLP-1R, 30 min at rt. The source says:
EndoC cAMP Accumulation Assay
A HTRF cAMP assay (cAMP Gs dynamic kit; CisoBio Cat #62AM4PEJ) was used to identify agonists of GLP-1R in a pancreatic insulinoma cell line (EndoC-PH1). […] EndoC-PHlcells have detectable GLP-1R messenger ribonucleic acid (mRNA) as detected by quantitative polymerase chain reaction (qPCR). […] The EndoC-PH1 cell line is a valid model of human beta cells and applicable for screenings to identify novel drug target candidates (Mol. Metab., 2018, 8, 144-157). CisBio HTRF cAMP kits are based on a competitive immunoassay using cryptate-labelled anti-cAMP antibody and d2-labeled cAMP. The detection kit is intended for the direct is quantitative determination of cAMP. The specific signal (i.e. energy transfer) is inversely proportional to the concentration of cAMP in the standard or sample. Test compounds (10 mM in DMSO) were diluted into assay buffer (HBSS (Sigma #H8264) supplemented with 25 mM HEPES (Gibco #15630, pH 7.4), 0.1% BSA (Sigma #A3059) and 0.5 mM IBMX (Sigma #I7018) included fresh on the day of the assay) into 96 well U-bottom plates (Greiner #650201). Diluted compounds were transferred to ECHO source polypropelene plates (Labcyte #P-05525) and dose response curves were dispensed acoustically using ECHO 550 into black shallow-well u-bottom 384-well HTRF Assay Plates (Corning 4514). Cryovials of EndoC-H1 (supplied at 1×10e^7 cells/vial) were used directly for screening. The cryovials and were removed from N2(1) and thawed rapidly in a 37° C. water bath. The cells were resuspended in assay buffer and centrifuged at 300 g for 5 min. Cells were resuspended in assay buffer at the appropriate concentration, typically at 12e5 cells per mL (3000 cells per well, dependent on cell batch) and 2.5 μL diluted cells were added to all wells of destination plate by Multidrop combi reagent dispenser (Thermofisher). The plates were incubated at rt for 30 min. The assay was stopped by adding 2.5 μL anti-cAMP cryptate solution to all wells and 2.5 μL cAMP-d2 solution (both diluted 1:20 in lysis buffer) to columns 1-22 by Combi drop. A volume of 2.5 μL cAMP-d2 solution was added to wells E23 to P24 and 2.5 μL lysis buffer added to wells A23 to D24 by multichannel pipette. The plates were incubated at rt for 1 h and read on an Envision plate reader using excitation wavelength of 320 nm and emission of […] and 660 nm.
Raw data from Envision is converted to % DeltaF according to the manufacturer's instructions. Dose response curves are analysed via 4-Parameter Logistical Analysis and assay plate Z’ values obtained. Samples are graphed as percentage (%) activation plots compared to […] with assay window defined by negative control as basal cell is cAMP levels and positive control are defined by maximum GIP (82.5 nM) signal. GLP-1 (7-36 amide, Bachem H-6795) dose response curve was included on all plates.

This passage reports EC50 results from patent publication US20240417393A1, “CERTAIN 2,5-DIAZABICYCLO[4.2.0]OCTANES AS GLP-1 RECEPTOR MODULATORS” (ASTRAZENECA AB, priority 2021, published 2024).

T1 sequence (P43220 24-463 L260F): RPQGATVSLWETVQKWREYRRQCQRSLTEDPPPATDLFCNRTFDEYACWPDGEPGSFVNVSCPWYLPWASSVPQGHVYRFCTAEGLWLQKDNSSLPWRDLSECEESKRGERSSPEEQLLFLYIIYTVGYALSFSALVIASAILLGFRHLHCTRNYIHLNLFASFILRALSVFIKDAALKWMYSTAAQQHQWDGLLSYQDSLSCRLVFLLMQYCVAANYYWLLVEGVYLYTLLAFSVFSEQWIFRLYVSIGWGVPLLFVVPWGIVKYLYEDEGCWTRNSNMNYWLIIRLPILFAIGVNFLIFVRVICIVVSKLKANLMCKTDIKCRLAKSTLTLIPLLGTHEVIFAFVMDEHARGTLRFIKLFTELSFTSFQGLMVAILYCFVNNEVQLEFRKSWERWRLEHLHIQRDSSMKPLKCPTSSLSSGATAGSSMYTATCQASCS
T2 sequence (P43220 24-463): as the sequence (P43220 24-463 L260F) above, with F237L counted along it

Regarding `COc1cc(C(=O)O)cc2c1nc(CN1CCN(c3cccc4c3O[C@@](C)(c3ccc(Cl)cn3)O4)[C@H]3CC[C@@H]31)n2C[C@@H]1CCCO1` (single isomer, unassigned) [Example 7a, 2-(((1R*,6R*)-5-((R*)-2-(5-Chloropyridin-2-yl)-2-methylbenzo[d][1,3]dioxol-4-yl)-2,5-diazabicyclo[4.2.0]octan-2-yl)methyl)-4-methoxy-1-(((S)-tetrahydrofuran-2-yl)methyl)-1H-benzo[d]imidazole-6-carboxylic acid], the EC50 at human GLP-1R receptor was 27 nM; in assay [1] it was 72 nM.
In the same order, the values of `C[C@]1(c2ccc(Cl)cc2F)Oc2cccc(N3CCN(Cc4nc5ccc(C(=O)O)cc5n4C[C@@H]4CCO4)[C@H]4CC[C@H]43)c2O1` (single isomer, unassigned) [Example 18b, 2-((1R*,6S*)-5-(R*)-2-(4-Chloro-2-fluorophenyl)-2-methylbenzo[d][1,3]dioxol-4-yl)-2,5-diazabicyclo[4.2.0]octan-2-yl)methyl)-1-(((S)-oxetan-2-yl)methyl)-1H-benzo[d]imidazole-6-carboxylic acid] are 120 nM and 480 nM.
In the same order, the values of `COc1cc(C(=O)O)cc2c1nc(CN1CCN(c3cccc4c3O[C@@](C)(c3ccc(Cl)cn3)O4)[C@H]3CC[C@@H]31)n2C[C@@H]1CCCO1` (single isomer, unassigned) [Example 7c, 2-(((1R*,6R*)-5-((R*)-2-(5-Chloropyridin-2-yl)-2-methylbenzo[d][1,3]dioxol-4-yl)-2,5-diazabicyclo[4.2.0]octan-2-yl)methyl)-4-methoxy-1-(((S)-tetrahydrofuran-2-yl)methyl)-1H-benzo[d]imidazole-6-carboxylic acid] are 110 nM and 32 nM.
In the same order, the values of `C[C@]1(c2ccc(Cl)cn2)Oc2cccc(N3CCN(Cc4nc5c(Cl)cc(C(=O)O)cc5n4C[C@@H]4CCO4)[C@H]4CC[C@@H]43)c2O1` (single isomer, unassigned) [Example 3a, 4-Chloro-2-(((1R*,6R*)-5-((R*)-2-(5-chloropyridin-2-yl)-2-methylbenzo[d][1,3]dioxol-4-yl)-2,5-diazabicyclo[4.2.0]octan-2-yl)methyl)-1-(((S)-oxetan-2-yl)methyl)-1H-benzo[d]imidazole-6-carboxylic acid] are 220 nM and 4400 nM.
Consider `CCn1ccnc1Cn1c(CN2CCN(c3cccc4c3O[C@@](C)(c3ccc(Cl)cn3)O4)[C@H]3CC[C@@H]32)nc2c(Cl)cc(C(=O)O)cc21` (single isomer, unassigned) [Example 10b], for which the EC50 at human GLP-1R receptor turned out to be 19 nM; in assay [1], 76 nM.
For `C[C@]1(c2ccc(Cl)cn2)Oc2cccc(N3CCN(Cc4nc5c(Cl)cc(C(=O)O)cc5n4C[C@@H]4CCO4)[C@H]4CC[C@H]43)c2O1` (single isomer, unassigned) [Example 20d, 4-Chloro-2-(((1R*,6S*)-5-((R*)-2-(5-chloropyridin-2-yl)-2-methylbenzo[d][1,3]dioxol-4-yl)-2,5-diazabicyclo[4.2.0]octan-2-yl)methyl)-1-(((S)-oxetan-2-yl)methyl)-1H-benzo[d]imidazole-6-carboxylic acid], in that order: 2.5 nM and 2.8 nM.
As for `COc1cc(C(=O)O)cc2c1nc(CN1CCN(c3cccc4c3O[C@@](C)(c3ccc(Cl)cn3)O4)[C@H]3CC[C@@H]31)n2CC1(C#N)CC1` (single isomer, unassigned) [Example 25b], the EC50 came out at 6.2 nM on human GLP-1R receptor and 7.5 nM in assay [1].
For `C[C@]1(c2ccc(Cl)cn2)Oc2cccc(N3CCN(Cc4nc5ccc(C(=O)O)cc5n4C[C@@H]4CCO4)[C@H]4CC[C@H]43)c2O1` (single isomer, unassigned) [Example 5b, 2-((1R*,6S*)-5-(R*)-2-(5-Chloropyridin-2-yl)-2-methylbenzo[d][1,3]dioxol-4-yl)-2,5-diazabicyclo[4.2.0]octan-2-yl)methyl)-1-(((S)-oxetan-2-yl)methyl)-1H-benzo[d]imidazole-6-carboxylic acid], in that order: 18 nM and 120 nM.
Take `COc1cc(C(=O)O)cc2c1nc(CN1CCN(c3cccc4c3O[C@@](C)(c3ccc(Cl)cn3)O4)[C@H]3CC[C@@H]31)n2CCOC1CC1` (relative stereo) [Example 27, rel-2-(((1R,6R)-5-((R)-2-(5-Chloropyridin-2-yl)-2-methylbenzo[d][1,3]dioxol-4-yl)-2,5-diazabicyclo[4.2.0]octan-2-yl)methyl)-1-(2-cyclopropoxvethyl)-4-methoxy-1H-benzo[d]imidazole-6-carboxylic acid]: the EC50 is 65 nM at human GLP-1R receptor and 200 nM in assay [1].
`COc1cc(C(=O)O)cc2c1nc(CN1CCN(c3cccc4c3O[C@@](C)(c3ccc(Cl)cn3)O4)[C@H]3CC[C@@H]31)n2CC1(C#N)CC1` (single isomer, unassigned) [Example 25d]: the EC50 stood at 36 nM on human GLP-1R receptor and 74 nM in assay [1].
As to `C[C@]1(c2ccc(Cl)cc2F)Oc2cccc(N3CCN(Cc4nc5c(F)cc(C(=O)O)cc5n4C[C@@H]4CCO4)[C@H]4CC[C@H]43)c2O1` (single isomer, unassigned) [Example 9c, 2-(((1R*,6S*)-5-((R*)-2-(4-Chloro-2-fluorophenyl)-2-methylbenzo[d][1,3]dioxol-4-yl)-2,5-diazabicyclo[4.2.0]octan-2-yl)methyl)-4-fluoro-1-(((S)-oxetan-2-yl)methyl)-1H-benzo[d]imidazole-6-carboxylic acid], the EC50 was 28 nM at human GLP-1R receptor and 74 nM in assay [1].
`C[C@]1(c2ccc(Cl)cn2)Oc2cccc(N3CCN(Cc4nc5c(F)cc(C(=O)O)cc5n4CC4(CC#N)CC4)[C@H]4CC[C@@H]43)c2O1` (single isomer, unassigned) [Example 23b]: the half-maximal effective concentration (EC50) at human GLP-1R receptor was found to be 27 nM; in assay [1] it was 85 nM.
